The values that follow are results of earlier work, collected in patent publication US20040132815A1, “Preventive/remedial agent for inflammatory disease in oral-cavity mucosa and the like” (priority 2001, published 2004).

For the series the following is noted: compared with the disodium salt.

For the compound `CC(C)c1cc2c(cc1S(=O)(=O)[O-])[C@@]1(C)CCC[C@@](C)(C(=O)O)[C@@H]1CC2.[Na+]` [Sulfodehydroabietic acid monosodium salt], the hygroscopicity entry is reported as “less hygroscopic” and the stability result is given as “more stable”.
